The values below come from patent publication US4351836A, “1,2,3,4,4a,5,10,10a-Octahydro-5,10-ortho-benzenobenz[g]isoquinolines and antidepressant use thereof” (E. I. Du Pont de Nemours and Company, priority 1980, dated 1982).

Series [1] deals with tetrabenazine-induced sedation and depression in mice. Briefly: Antagonism of tetrabenazine-induced depression in mice, orally. In kind it is in vivo, female white mice (Carworth CF1 S). Particulars: oral, 1 hr post drug, 30 minutes after tetrabenazine 32 mg/kg intraperitoneally, female mice; for ED50: Mus musculus, read-out: ED50 for prevention of ptosis. How it is done:
Relief from ptosis was recorded when exactly two seconds after placing the mouse facing the observer, lid closure was less than 50% in both eyes.

For series [2] the test system is unchanged. The description is as above. Type of series: in vivo, female white mice (Carworth CF1 S). Conditions: oral, 1 hr post drug, 30 minutes after tetrabenazine 32 mg/kg intraperitoneally, female mice; for ED50: Mus musculus, read-out: ED50 for prevention of exploratory loss.
For series [3] the following is noted: background statement, no test described; cited from earlier work.

Counter-ions that a name gives are not always drawn. Like-named read-outs stand apart in the source and are kept apart here.

A word on the ED50: it is the midpoint of the dose-response relation.

Consider `CC(O)CCN1CCC2C3c4ccccc4C(c4ccccc43)C2C1` (centres unmarked), for which the ED50 in series [1] came to 4.9 mg/kg; in series [2], 5.6 mg/kg. The matching figures for `c1ccc(OCCN2CCC3C4c5ccccc5C(c5ccccc54)C3C2)cc1` (centres unmarked): 10.8 mg/kg and 27 mg/kg.

As for `CCOC(=O)CCN1CCC2C3c4ccccc4C(c4ccccc43)C2C1` (racemic) [(±)1,2,3,4,4a,5,10,10a-octahydro-5,10-o-benzenobenz[g]isoquinoline-2-propionic acid ethyl ester], the results for the ED50 in series [1] and in series [2] were 8.1 mg/kg and 20 mg/kg, respectively. For `CCCCN1CCC2C3c4ccccc4C(c4ccccc43)C2C1` (racemic) [(±)2-(1-butyl)-1,2,3,4,4a,5,10,10a-Octahydro-5,10-o-benzenobenz[g]isoquinoline Maleate] the same measures were 11.2 mg/kg and 19 mg/kg. In the case of `c1ccc(CCN2CCC3C4c5ccccc5C(c5ccccc54)C3C2)cc1` (racemic) [R=CH2 CH2 C6 H5, R1=H, R2=H, R3=H, R4=H, (±)1,2,3,4,4a,5,10,10a-octahydro-2-phenethyl-5,10-o-benzenobenz[g]isoquinoline, hydrochloride hemihydrate], the ED50 in series [1] came to 11.8 mg/kg; in series [2], 13.6 mg/kg.

As for `CC(=O)CCN1CCC2C3c4ccccc4C(c4ccccc43)C2C1` (racemic) [R=CH2 CH2 COCH3, R1=H, R2=H, R3=H, R4=H, (±)4-(1,2,3,4,4a,5,10,10a-Octahydro-5,10-o-benzenobenz[g]isoquinoline-2-yl)-2-butanone Maleate], the ED50 in series [1] turned out to be 2.1 mg/kg; in series [2], 4.4 mg/kg. For `O=C(O)CCN1CCC2C3c4ccccc4C(c4ccccc43)C2C1` (racemic) [R=CH2 CH2 COOH, R1=H, R2=H, R3=H, R4=H, (±)1,2,3,4,4a,5,10,10a-Octahydro-5,10-o-benzenobenz[g]isoquinoline-2-propionic Acid Hydrochloride] the same measures were 15 mg/kg and 27 mg/kg. For `c1ccc(C(CN2CCC3C4c5ccccc5C(c5ccccc54)C3C2)c2ccccc2)cc1` (racemic) [R=CH2 CH(C6 H5)2, R1=H, R2=H, R3=H, R4=H, (±)1,2,3,4,4a,5,10,10a-octahydro-2-(2,2-diphenylethyl)-5,10-o-benzenobenz[g]isoquinoline hydrochloride] the same measures were 12 mg/kg and 47 mg/kg.

`CN1CCC2C3c4ccccc4C(c4ccccc43)C2C1` (racemic) [R=CH3, R1=H, R2=H, R3=H, R4=H, (±)1,2,3,4,4a,5,10,10a-Octrahydro-2-methyl-5,10-o-benzenobenz[g]isoquinoline Hydrochloride]: the ED50 amounted to 1 mg/kg in series [1] and 6 mg/kg in series [2].

Turning to `CCOC(=O)N1CCC2C3c4ccccc4C(c4ccccc43)C2C1` (racemic) [R=COOC2 H5, R1=H, R2=H, R3=H, R4=H, (±)1,2,3,4,4a,5,10,10a-Octahydro-5,10-o-benzenobenz[g]isoquinoline-2-carboxylic Acid, Ethyl Ester], the ED50 in series [1] came out at 2.1 mg/kg; in series [2], 5.4 mg/kg. For `c1ccc2c(c1)C1c3ccccc3C2C2CNCCC12` (racemic) [R=H, R1=H, R2=H, R3=H, R4=H, (±)1,2,3,4,4a,5,10,10a-Octahydro-5,10-o-benzenobenz[g]isoquinoline Hydrochloride] the same measures were 0.41 mg/kg and 1.5 mg/kg.

Take `CN(C)CCC=C1c2ccccc2CCc2ccccc21` [Amitriptyline, reference compound]: the results for the ED50 in series [1] and in series [2] were 1 mg/kg and 1.2 mg/kg, respectively. As to `CN(C)CCCN1c2ccccc2CCc2ccccc21` [Imipramine], the side effects result in series [3] is “may cause blurred vision, dryness of mouth, constipation, urinary retention, orthostatic hypotension, respiration depression, myocardial infarction and congestive heart failure”. For the compound “(±)1,2,3,4,4a,5,10,10a-octahydro-5-(or: -10)-methyl-5,10-o-benzobenz[g]isoquinoline hydrochloride [R=H, R1=CH3 (H), R2=H(CH3), R3=H, R4=H]”, in series [1], the “ED50 for prevention of ptosis” value amounted to 22 mg/kg. Moreover, the “ED50 for prevention of exploratory loss” value in series [2] is 38 mg/kg. Regarding “(±)1,2,3,4,4a,5,10,10a-octahydro-7-(or: -8-)methyl-5,10-o-benzenobenz[g]isoquinoline hydrochloride [R=H, R1=H, R2=H, R3=7 or 8-CH3, R4=H]”, the “ED50 for prevention of ptosis” value in series [1] is listed as “.94 mg/kg”. Besides, the “ED50 for prevention of exploratory loss” value in series [2] turned out to be 4.8 mg/kg. For “(±)1,2,3,4,4a,-5,10,10a-octahydro-2,5-dimethyl-5,10-o-benzenobenz[g]isoquinoline or (±)1,2,3,4,4a,5,10,10a-octahydro-2,10-dimethyl-5,10-o-benzenobenz[g]isoquinoline [R=CH3, R1=CH3 (H), R2=H(CH3), R3=H, R4=H]” the same measures were 21 mg/kg and 27 mg/kg. In the case of “(±)2-(1-adamantylmethyl)-1,2,3,4,4a,5,10,10a-octahydro-5,10-o-benzenobenz[g]isoquinoline, hydrochloride hemihydrate [R=1-adamantyl, R1=H, R2=H, R3=H, R4=H]”, the “ED50 for prevention of ptosis” value in series [1] was found to be 24 mg/kg. The “ED50 for prevention of exploratory loss” value in series [2] is 41 mg/kg.

With “(±)6,10-dichloro-1,2,3,4,4a,5,10,10a-octahydro-2-methyl-5,10-o-benzenobenz[g]isoquinoline hydrochloride [R=CH3, R1=H, R2=H, R3=6-Cl, R4=10-Cl]”, in series [1], the “ED50 for prevention of ptosis” value is given as 12.2 mg/kg. For the same compound, in series [2], the “ED50 for prevention of exploratory loss” value is 22 mg/kg. As for “(±)6-(or: -9-)-chloro-1,2,3,4,4a,5,10,10a-octahydro-2-methyl-5,10-o-benzenobenz[g]isoquinoline hydrochloride [R=CH3, R1=H, R2=H, R3=6 or 9-Cl, R4=H]”, the “ED50 for prevention of ptosis” value in series [1] is on record as 1.3 mg/kg. Further, the “ED50 for prevention of exploratory loss” value in series [2] is 1.4 mg/kg. On to “(±)6-(or: -9-)chloro-1,2,3,4,4a,10,10a-octahydro-5,10-o-benzenobenz[g]isoquinoline hydrochloride [R=H, R1=H, R2=H, R3=6 or 9-Cl, R4=H]”, for which, in series [1], the “ED50 for prevention of ptosis” value worked out at 2.2 mg/kg. Moreover, in series [2], the “ED50 for prevention of exploratory loss” value stood at 2.5 mg/kg.

In the case of “(±)7-(or: -8-)-chloro-1,2,3,4,4a,5,10,10a-octahydro-5,10-o-benzenobenz[g]isoquinoline hydrochloride [R=H, R1=H, R2=H, R3=7 or 8-Cl, R4=H]”, the “ED50 for prevention of ptosis” value in series [1] was found to be 1.4 mg/kg. In addition, in series [2], the “ED50 for prevention of exploratory loss” value came to 1.7 mg/kg. Regarding “(±)7-(or: -8-)-fluoro-1,2,3,4,4a,5,10,10a-octahydro-5,10-o-benzenobenz[g]isoquinoline hydrochloride [R=H, R1=H, R2=H, R3=7 or 8-F, R4=H]”, the “ED50 for prevention of ptosis” value in series [1] is listed as “.58 mg/kg”. For the same compound, the “ED50 for prevention of exploratory loss” value in series [2] is listed as 1.7 mg/kg.

For “(±)7-(or: -8-)chloro-1,2,3,4,4a,5,10,10a-octahydro-2-methyl-5,10-o-benzenobenz[g]isoquinoline hydrochloride hemihydrate [R=CH3, R1=H, R2=H, R3=7 or 8-Cl, R4=H]”, the “ED50 for prevention of ptosis” value in series [1] stood at 3.4 mg/kg. Moreover, the “ED50 for prevention of exploratory loss” value in series [2] came to 4.5 mg/kg.

As for “(±)7-(or: -8-)fluoro-1,2,3,4,4a,5,10,10a-octahydro-2-methyl-5,10-o-benzenobenz[g]isoquinoline hydrochloride [R=CH3, R1=H, R2=H, R3=7 or 8-F, R4=H]”, in series [1], the “ED50 for prevention of ptosis” value came to 2.0 mg/kg. In series [2], the “ED50 for prevention of exploratory loss” value worked out at 2.7 mg/kg.
